Measured values taken from patent US10858322B2, “Process for preparing 1-isobutyryl-1′-((1-(4,4,4-trifluorobutyl)-4,5,6,7-tetrahydro-1H-benzo[D]imidazol-2-yl)methyl)spiro[azetidine-3,3′-indolin]-2′-one” (SHANDONG DANHONG PHARMACEUTICAL CO., LTD., priority 2015, dated 2020).
≈ marks a conversion by molar mass, not a printed value. Blank lines part the entries; values can stand above or below the compound they belong to.

Experiments:
Hep2 cells = assay: RSV long CPE assay, CC50 (in vitro toxicity); type: cell-based; conditions: conclusion from the CPE assay CC50
Protocol: (§1) RSV long CPE assay Experimental Purpose: The EC50 and CC50 values of anti-RSV respiratory syncytial virus compounds were detected by cytopathology. Experimental Materials: Cell Line: Hep2 Experimental Procedures and Methods: a) Cell Inoculation (Hep2 cell) 1) The cell culture medium was removed and washed with 10 mL of PBS; 2) The preheated trypsin was added to the cleaned culture flask and rotating the flask to allow the trypsin to uniformly cover the culture flask. And then sucked it into a 37° C., 5% CO2 incubator to digest. 3) Each T150 was suspended in 10 to 15 mL culture medium, 0.1 mL was taken and then diluted twice with trypan blue solution. […] The cells were centrifuged (300 rpm) and the cells were adhered to the wall and placed in a 37° C., 5% CO2 incubator overnight. b) Compound addition: 1) The compound dissolved in 100% DMSO was diluted in a half logarithm and added to the cell plate using an Echo liquid handler. To ensure that the final concentration of DMSO was 1%; [table] […] 2) CCK-8 (Dojindo-CK04-20, 6 μL/well) was added to 384 well plates with Multidrop® automatic dispenser. […] 4) The data were analyzed.

[1] = RSV long CPE assay, CC50 (in vitro toxicity); type: cell-based; conditions: human; Hep2 cells, 5 days, CCK-8 readout, n = 7
Protocol: as §1

[2] = system: RSV respiratory syncytial virus (Along strain); assay: microbe, parasite or virus in culture; type: cell-based
Protocol: And then sucked it into a 37° C., 5% CO2 incubator to digest.
3) Each T150 was suspended in 10 to 15 mL culture medium, 0.1 mL was taken and then diluted twice with trypan blue solution.
2) CCK-8 (Dojindo-CK04-20, 6 μL/well) was added to 384 well plates with Multidrop® automatic dispenser.
4) The data were analyzed.

[3] = Approximate solubility test of crystal form A; type: physicochemical; conditions: thermodynamic from solid, room temperature (20 to 30° C.)
[4] = Solid physical stability of crystal form A under different temperature and humidity conditions; type: physicochemical; conditions: 10th day
Protocol: The X-Ray Powder Diffraction method is as follows: Instrument: Bruker D8 ADVANCE X-Ray diffractometer; Target: Cu: K-Alpha; Wavelength λ=1.54179 Å; Tube Voltage: 40 kV; Tube Current: 40 mA; Scanning scope: 4-40°; Sample Rotation speed: 15 rpm; Scanning speed: 10°/min. […] On the tenth day, all samples were removed and returned to room temperature. The appearance changes of samples were observed, and the crystal form of samples was detected by XRPD.

[5] = Stability experiment of crystal form A in different solvents (XRPD); type: physicochemical; conditions: 2 days
Protocol: The X-Ray Powder Diffraction method is as follows:
Instrument: Bruker D8 ADVANCE X-Ray diffractometer; Target: Cu: K-Alpha; Wavelength λ=1.54179 Å; Tube Voltage: 40 kV; Tube Current: 40 mA; Scanning scope: 4-40°; Sample Rotation speed: 15 rpm; Scanning speed: 10°/min.
The mixture was stirred at 40° C. If the compound was completely dissolved, the sample was allowed to cool to room temperature, and if the solid was precipitated, the mixture was continued to stir; and if the sample remained in solution, the solvent was naturally evaporated to remove. After all the suspensions were stirred for 2 days, the solids in all samples were collected and XRPD was used to detect the crystal form state.

[6] = 0 day (−20° C. Sealed Storage) (Control Sample)
[7] = 25° C./92.5% Relative Humidity (Open)
[8] = 60° C./75% Relative Humidity (Open)

- EC50 ([2]; human respiratory syncytial virus, HEp-2, 120 h, Hep2 cells, RSV A long strain, 5 days, CCK-8 readout, n = 7, read-out: CPE assay EC50): 7 nM
SMILES: CC(C)C(=O)N1CC2(C1)C(=O)N(Cc1nc3c(n1CCCC(F)(F)F)CCCC3)c1ccccc12 [Compound of formula (I), 1-Isobutyryl-1′-((1-(4,4,4-trifluorobutyl)-4,5,6,7-tetrahydro-1H-benzo[d]imidazol-2-yl)methyl)spiro[azetidine-3,3′-indolin]-2′-one]
- cytotoxicity (Hep2 cells): no cytotoxicity
- CC50 at 5 days [1]: > 100000 nM
- activity in vitro compared with BMS433771 ([2]; conclusion from the CPE assay): better activity in vitro

- solubility ([3]; acetone-water (1:2), aqueous with cosolvent or surfactant or cyclodextrin, Acetone-H2O (1:2)): < 2 mg/mL
- solubility ([3]; acetonitrile-water (1:1), aqueous with cosolvent or surfactant or cyclodextrin, Acetonitrile-H2O (1:1)): 46 to 58 mg/mL (≈ 94.2 to 119 mM)
- solubility ([3]; ethanol-water (1:1), aqueous with cosolvent or surfactant or cyclodextrin, Ethanol-H2O (1:1)): 2 to 2.7 mg/mL (≈ 4.09 to 5.53 mM)
- solubility ([3]; ethanol-water (3:1), aqueous with cosolvent or surfactant or cyclodextrin, Ethanol-H2O (3:1)): 22 to 24.5 mg/mL (≈ 45 to 50.1 mM)
- solubility ([3]; isopropanol-water (1:1), aqueous with cosolvent or surfactant or cyclodextrin, Isopropanol-H2O (1:1)): 2.5 to 3 mg/mL (≈ 5.12 to 6.14 mM)
- solubility ([3]; methanol-water (1:1), aqueous with cosolvent or surfactant or cyclodextrin, Methanol-H2O (1:1)): < 2 mg/mL
- solubility ([3]; methanol-water (3:1), aqueous with cosolvent or surfactant or cyclodextrin, Methanol-H2O (3:1)): 45 to 56.5 mg/mL (≈ 92.1 to 116 mM)
- solubility ([3]; organic solvent or mixture, 2-Butanone): 56.9 to 75.8 mg/mL (≈ 116 to 155 mM)
- solubility ([3]; organic solvent or mixture, 2-Methyltetrahydrofuran): 45 to 56.7 mg/mL (≈ 92.1 to 116 mM)
- solubility ([3]; organic solvent or mixture, Acetone): 45.9 to 57.4 mg/mL (≈ 94 to 117 mM)
- solubility ([3]; organic solvent or mixture, Acetonitrile): 42 to 53.6 mg/mL (≈ 86 to 110 mM)
- solubility ([3]; organic solvent or mixture, Cyclohexane): < 2 mg/mL
- solubility ([3]; organic solvent or mixture, Dioxane): 45 to 56.5 mg/mL (≈ 92.1 to 116 mM)
- solubility ([3]; organic solvent or mixture, Ethanol): 42 to 52.5 mg/mL (≈ 86 to 107 mM)
- solubility ([3]; organic solvent or mixture, Ethyl acetate): 29 to 34 mg/mL (≈ 59.4 to 69.6 mM)
- solubility ([3]; organic solvent or mixture, Isopropanol): 13.9 to 20.9 mg/mL (≈ 28.5 to 42.8 mM)
- solubility ([3]; organic solvent or mixture, Isopropyl acetate): 18 to 20.5 mg/mL (≈ 36.8 to 42 mM)
- solubility ([3]; organic solvent or mixture, Methanol): 115 to 231 mg/mL (≈ 235 to 473 mM)
- solubility ([3]; organic solvent or mixture, Methyl isobutyl ketone): 22.9 to 25.5 mg/mL (≈ 46.9 to 52.2 mM)
- solubility ([3]; organic solvent or mixture, Methyl tert-butyl ether): 3 to 3.7 mg/mL (≈ 6.14 to 7.57 mM)
- solubility ([3]; organic solvent or mixture, Tetrahydrofuran): 113 to 226 mg/mL (≈ 231 to 463 mM)
- solubility ([3]; organic solvent or mixture, Toluene): 28 to 32.5 mg/mL (≈ 57.3 to 66.5 mM)
- solubility ([3]; organic solvent or mixture, n-Butyl alcohol): 25.9 to 29.5 mg/mL (≈ 53 to 60.4 mM)
- solubility ([3]; organic solvent or mixture, n-Heptane): < 2 mg/mL
- solubility ([3]; water, H2O): < 2 mg/mL
- Character [4, 6]: White Powder
- Crystal Form [4, 6]: Crystal Form A
- Character [4, 7]: White Powder
- Crystal Form [4, 7]: Crystal Form A
- Character ([4]; 60° C. (Open)): White Powder
- Crystal Form ([4]; 60° C. (Open)): Crystal Form A
- Character [4, 8]: White Powder
- Crystal Form [4, 8]: Crystal Form A
- Result (crystal form by XRPD) ([5]; 2-Methyltetrahydrofuran, stirred at 40° C.): Crystal Form A
- Result (crystal form by XRPD) ([5]; Acetone, stirred at 40° C.): Crystal Form A
- Result (crystal form by XRPD) ([5]; Acetone:water = 1:2, stirred at 40° C.): Crystal Form B
- Result (crystal form by XRPD) ([5]; Dioxane, stirred at 40° C.): Crystal Form A
- Result (crystal form by XRPD) ([5]; Ethanol, stirred at 40° C.): Crystal Form A
- Result (crystal form by XRPD) ([5]; Ethanol:water = 3:1, stirred at 40° C.): Crystal Form B
- Result (crystal form by XRPD) ([5]; Ethyl acetate, stirred at 40° C.): Crystal Form A
- Result (crystal form by XRPD) ([5]; Methanol:water = 3:1, stirred at 40° C.): Crystal Form A
- Result (crystal form by XRPD) ([5]; Toluene, stirred at 40° C.): Crystal Form A
SMILES: CC(C)C(=O)N1CC2(C1)C(=O)N(Cc1nc3c(n1CCCC(F)(F)F)CCCC3)c1ccccc12 [Crystal Form A, 1-Isobutyryl-1′-((1-(4,4,4-trifluorobutyl)-4,5,6,7-tetrahydro-1H-benzo[d]imidazol-2-yl)methyl)spiro[azetidine-3,3′-indolin]-2′-one]
